Source: US20150087673A1, “METHODS FOR USING AND BIOMARKERS FOR AMPK-ACTIVATING COMPOUNDS” (RIGEL PHARMACEUTICALS, INC., priority 2013, published 2015)

system: AMPK; test: AMPK activation assay (enzyme-linked immunosorbent assay); assay type: cell-based
How it was run: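 Activation by each compound is measured using a conventional commercial immunoassay kit.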

Structure (SMILES) | EC50 [nM]
CC(=O)c1ccc(Oc2ccc(NC(=O)c3ccc(C(=O)N4CCC(Oc5ccc(C(=O)N(C)C)cc5)CC4)nc3)cn2)cc1 [Compound 488, N-(6-(4-acetylphenoxy)pyridin-3-yl)-6-(4-(4-(dimethylcarbamoyl)phenoxy)piperidine-1-carbonyl)nicotinamide] | < 500
CC(=O)c1ccc(Oc2ccc(NC(=O)c3ccc(C(=O)N4CCN(c5ccc(S(=O)(=O)C(C)C)cc5)CC4)nc3)cn2)cc1 [Compound 489, N-(6-(4-acetylphenoxy)pyridin-3-yl)-6-(4-(4-(isopropylsulfonyl)phenyl)piperazine-1-carbonyl)nicotinamide] | < 500
COc1ccc(C(=O)C2CCN(C(=O)c3ccc(C(=O)NC4CCN(Cc5ccc(C(=O)N(C)C)cc5)CC4)cn3)CC2)cc1 [Compound 490, N-(1-(4-(dimethylcarbamoyl)benzyl)piperidin-4-yl)-6-(4-(4-methoxybenzoyl)piperidine-1-carbonyl)nicotinamide] | 1000 to 5000
N#Cc1ccc(CN2CCC(NC(=O)c3ccc(N4CCN(Cc5ccc(F)cc5)CC4)nn3)CC2)cc1 [Compound 491, N-(1-(4-cyanobenzyl)piperidin-4-yl)-6-(4-(4-fluorobenzyl)piperazin-1-yl)pyridazine-3-carboxamide] | 1000 to 5000
N#Cc1ccc(CN2CCC(NC(=O)c3ccc(C(=O)N4CCC(Oc5ccc(S(F)(F)(F)(F)F)cc5)CC4)cn3)CC2)cc1 [Compound 492, N-(1-(4-cyanobenzyl)piperidin-4-yl)-5-(4-(4-(pentafluorosulfanyl)phenoxy)piperidine-1-carbonyl)picolinamide] | < 500
N#Cc1ccc(CN2CCC(NC(=O)c3ccc(C(=O)N4CCC(Oc5ccc(S(F)(F)(F)(F)F)cc5)CC4)nc3)CC2)cc1 [Compound 493, N-(1-(4-cyanobenzyl)piperidin-4-yl)-6-(4-(4-(pentafluorosulfanyl)phenoxy)piperidine-1-carbonyl)nicotinamide] | < 500
O=C(NC1CCN(Cc2ccc(OC(F)(F)F)cc2)CC1)c1ccc(C(=O)N2CCC(Oc3ccc(S(F)(F)(F)(F)F)cc3)CC2)nc1 [Compound 494, 6-(4-(4-(pentafluorosulfanyl)phenoxy)piperidine-1-carbonyl)-N-(1-(4-(trifluoromethoxy)benzyl)piperidin-4-yl)nicotinamide] | < 500
COc1ccc(CN2CCC(NC(=O)c3ccc(C(=O)N4CCC(Oc5ccc(S(F)(F)(F)(F)F)cc5)CC4)nc3)CC2)cc1 [Compound 495, N-(1-(4-methoxybenzyl)piperidin-4-yl)-6-(4-(4-(pentafluorosulfanyl)phenoxy)piperidine-1-carbonyl)nicotinamide] | < 500
O=C(Nc1ccc(Oc2ccc(F)cc2)nc1)c1ccc(C(=O)N2CCC(Oc3ccc(S(F)(F)(F)(F)F)cc3)CC2)nc1 [Compound 496, N-(6-(4-fluorophenoxy)pyridin-3-yl)-6-(4-(4-(pentafluorosulfanyl)phenoxy)piperidine-1-carbonyl)nicotinamide] | < 500
N#Cc1ccc(Oc2ccc(NC(=O)c3ccc(C(=O)N4CCC(Oc5ccc(S(F)(F)(F)(F)F)cc5)CC4)nc3)cn2)cc1 [Compound 497, N-(6-(4-cyanophenoxy)pyridin-3-yl)-6-(4-(4-(pentafluorosulfanyl)phenoxy)piperidine-1-carbonyl)nicotinamide] | < 500
COc1ccc(C(=O)C2CCN(C(=O)c3ccc(C(=O)NC4CCN(Cc5ccc(C#N)cc5)CC4(F)F)cn3)CC2)cc1 (centres unmarked) [Compound 498, N-(1-(4-cyanobenzyl)-3,3-difluoropiperidin-4-yl)-6-(4-(4-methoxybenzoyl)piperidine-1-carbonyl)nicotinamide] | < 500
